# Data from ChEMBL document CHEMBL5303573, “Mapping human microbiome drug metabolism by gut bacteria and their genes” (Nature, 2019).
# Experiment: The drug is tested on Clostridium scindens strain: ATCC35704 for biotransformation. The drug concentrations were measured before and after a 12-h incubation by liquid-chromatography-coupled mass spectrometry (LC–MS)
# Conditions: 2 µM
row,Compound,Bacterial Biotransformation
1,CC(C)OC(=O)C(C)(C)Oc1ccc(C(=O)c2ccc(Cl)cc2)cc1 [FENOFIBRATE],Compound NOT metabolized
2,CCCCCCOC(=O)/N=C(/N)c1ccc(NCc2nc3cc(C(=O)N(CCC(=O)OCC)c4ccccn4)ccc3n2C)cc1.CS(=O)(=O)O [DABIGATRAN ETEXILATE MESYLATE],Compound NOT metabolized

# Conditions: bacteroides thetaiotaomicron, 12 h, 2 µM
# Description: The drug is tested on Bacteroides thetaiotaomicron strain: 3731 for biotransformation. The drug concentrations were measured before and after a 12-h incubation by liquid-chromatography-coupled mass spectrometry (LC–MS)
row,Compound,Bacterial Biotransformation
1,O=c1[nH]c2ccccc2n1C1CCN(CCCC(c2ccc(F)cc2)c2ccc(F)cc2)CC1 [PIMOZIDE],Compound NOT metabolized
2,Cc1ccc(-c2nc3ccc(C)cn3c2CC(=O)N(C)C)cc1 [ZOLPIDEM],Compound NOT metabolized
3,CC(C)OC(=O)C(C)(C)Oc1ccc(C(=O)c2ccc(Cl)cc2)cc1 [FENOFIBRATE],Compound NOT metabolized

# Experiment: The drug is tested on Bifidobacterium breve strain: DSM20213 for biotransformation. The drug concentrations were measured before and after a 12-h incubation by liquid-chromatography-coupled mass spectrometry (LC–MS)
# Conditions: 2 µM
row,Compound,Bacterial Biotransformation
1,O=c1[nH]c2ccccc2n1C1CCN(CCCC(c2ccc(F)cc2)c2ccc(F)cc2)CC1 [PIMOZIDE],Compound NOT metabolized
2,Cc1ccc(-c2nc3ccc(C)cn3c2CC(=O)N(C)C)cc1 [ZOLPIDEM],Compound NOT metabolized

# Experiment: The drug is tested on Bacteroides caccae strain: ATCC43185 for biotransformation. The drug concentrations were measured before and after a 12-h incubation by liquid-chromatography-coupled mass spectrometry (LC–MS)
# Conditions: 2 µM
row,Compound,Bacterial Biotransformation
1,O=c1[nH]c2ccccc2n1C1CCN(CCCC(c2ccc(F)cc2)c2ccc(F)cc2)CC1 [PIMOZIDE],Compound NOT metabolized
2,Cc1ccc(-c2nc3ccc(C)cn3c2CC(=O)N(C)C)cc1 [ZOLPIDEM],Compound NOT metabolized
3,CC(C)OC(=O)C(C)(C)Oc1ccc(C(=O)c2ccc(Cl)cc2)cc1 [FENOFIBRATE],Compound NOT metabolized
4,CCCCCCOC(=O)/N=C(/N)c1ccc(NCc2nc3cc(C(=O)N(CCC(=O)OCC)c4ccccn4)ccc3n2C)cc1.CS(=O)(=O)O [DABIGATRAN ETEXILATE MESYLATE],Compound NOT metabolized

# Experiment: The drug is tested on Clostridium sp. strain: fecal isolate for biotransformation. The drug concentrations were measured before and after a 12-h incubation by liquid-chromatography-coupled mass spectrometry (LC–MS)
# Conditions: 2 µM
row,Compound,Bacterial Biotransformation
1,O=c1[nH]c2ccccc2n1C1CCN(CCCC(c2ccc(F)cc2)c2ccc(F)cc2)CC1 [PIMOZIDE],Compound NOT metabolized
2,Cc1ccc(-c2nc3ccc(C)cn3c2CC(=O)N(C)C)cc1 [ZOLPIDEM],Compound NOT metabolized

# Experiment: The drug is tested on Bacteroides cellulosilyticus strain: DSM14838 for biotransformation. The drug concentrations were measured before and after a 12-h incubation by liquid-chromatography-coupled mass spectrometry (LC–MS)
# Conditions: 2 µM
row,Compound,Bacterial Biotransformation
1,O=c1[nH]c2ccccc2n1C1CCN(CCCC(c2ccc(F)cc2)c2ccc(F)cc2)CC1 [PIMOZIDE],Compound NOT metabolized
2,Cc1ccc(-c2nc3ccc(C)cn3c2CC(=O)N(C)C)cc1 [ZOLPIDEM],Compound NOT metabolized
3,CC(C)OC(=O)C(C)(C)Oc1ccc(C(=O)c2ccc(Cl)cc2)cc1 [FENOFIBRATE],Compound NOT metabolized
4,CCCCCCOC(=O)/N=C(/N)c1ccc(NCc2nc3cc(C(=O)N(CCC(=O)OCC)c4ccccn4)ccc3n2C)cc1.CS(=O)(=O)O [DABIGATRAN ETEXILATE MESYLATE],Compound NOT metabolized

# Conditions: bacteroides fragilis, 12 h, 2 µM
# Description: The drug is tested on Bacteroides fragilis strain: DS-208 for biotransformation. The drug concentrations were measured before and after a 12-h incubation by liquid-chromatography-coupled mass spectrometry (LC–MS)
row,Compound,Bacterial Biotransformation
1,O=c1[nH]c2ccccc2n1C1CCN(CCCC(c2ccc(F)cc2)c2ccc(F)cc2)CC1 [PIMOZIDE],Compound NOT metabolized
2,Cc1ccc(-c2nc3ccc(C)cn3c2CC(=O)N(C)C)cc1 [ZOLPIDEM],Compound NOT metabolized
3,CC(C)OC(=O)C(C)(C)Oc1ccc(C(=O)c2ccc(Cl)cc2)cc1 [FENOFIBRATE],Compound NOT metabolized
4,CCCCCCOC(=O)/N=C(/N)c1ccc(NCc2nc3cc(C(=O)N(CCC(=O)OCC)c4ccccn4)ccc3n2C)cc1.CS(=O)(=O)O [DABIGATRAN ETEXILATE MESYLATE],Compound NOT metabolized

# Experiment: The drug is tested on Clostridium symbiosum strain: ATCC14940 for biotransformation. The drug concentrations were measured before and after a 12-h incubation by liquid-chromatography-coupled mass spectrometry (LC–MS)
# Conditions: 2 µM
row,Compound,Bacterial Biotransformation
1,O=c1[nH]c2ccccc2n1C1CCN(CCCC(c2ccc(F)cc2)c2ccc(F)cc2)CC1 [PIMOZIDE],Compound NOT metabolized
2,Cc1ccc(-c2nc3ccc(C)cn3c2CC(=O)N(C)C)cc1 [ZOLPIDEM],Compound NOT metabolized
3,CC(C)OC(=O)C(C)(C)Oc1ccc(C(=O)c2ccc(Cl)cc2)cc1 [FENOFIBRATE],Compound NOT metabolized
4,CCCCCCOC(=O)/N=C(/N)c1ccc(NCc2nc3cc(C(=O)N(CCC(=O)OCC)c4ccccn4)ccc3n2C)cc1.CS(=O)(=O)O [DABIGATRAN ETEXILATE MESYLATE],Compound NOT metabolized

# Experiment: The drug is tested on Enterobacter cancerogenus strain: ATCC35316 for biotransformation. The drug concentrations were measured before and after a 12-h incubation by liquid-chromatography-coupled mass spectrometry (LC–MS)
# Conditions: 2 µM
row,Compound,Bacterial Biotransformation
1,O=c1[nH]c2ccccc2n1C1CCN(CCCC(c2ccc(F)cc2)c2ccc(F)cc2)CC1 [PIMOZIDE],Compound NOT metabolized
2,Cc1ccc(-c2nc3ccc(C)cn3c2CC(=O)N(C)C)cc1 [ZOLPIDEM],Compound NOT metabolized
3,CC(C)OC(=O)C(C)(C)Oc1ccc(C(=O)c2ccc(Cl)cc2)cc1 [FENOFIBRATE],Compound NOT metabolized
4,CCCCCCOC(=O)/N=C(/N)c1ccc(NCc2nc3cc(C(=O)N(CCC(=O)OCC)c4ccccn4)ccc3n2C)cc1.CS(=O)(=O)O [DABIGATRAN ETEXILATE MESYLATE],Compound NOT metabolized

# Conditions: parabacteroides distasonis, 12 h, 2 µM
# Description: The drug is tested on Parabacteroides distasonis strain: ATCC8503 for biotransformation. The drug concentrations were measured before and after a 12-h incubation by liquid-chromatography-coupled mass spectrometry (LC–MS)
row,Compound,Bacterial Biotransformation
1,O=c1[nH]c2ccccc2n1C1CCN(CCCC(c2ccc(F)cc2)c2ccc(F)cc2)CC1 [PIMOZIDE],Compound metabolized
2,CC(C)OC(=O)C(C)(C)Oc1ccc(C(=O)c2ccc(Cl)cc2)cc1 [FENOFIBRATE],Compound NOT metabolized
3,CCCCCCOC(=O)/N=C(/N)c1ccc(NCc2nc3cc(C(=O)N(CCC(=O)OCC)c4ccccn4)ccc3n2C)cc1.CS(=O)(=O)O [DABIGATRAN ETEXILATE MESYLATE],Compound NOT metabolized

# Conditions: bacteroides thetaiotaomicron, 12 h, 2 µM
# Remark: another data set of the same source
# Description: The drug is tested on Bacteroides thetaiotaomicron strain: VPI-5482 for biotransformation. The drug concentrations were measured before and after a 12-h incubation by liquid-chromatography-coupled mass spectrometry (LC–MS)
row,Compound,Bacterial Biotransformation
1,O=c1[nH]c2ccccc2n1C1CCN(CCCC(c2ccc(F)cc2)c2ccc(F)cc2)CC1 [PIMOZIDE],Compound NOT metabolized
2,CCCCCCOC(=O)/N=C(/N)c1ccc(NCc2nc3cc(C(=O)N(CCC(=O)OCC)c4ccccn4)ccc3n2C)cc1.CS(=O)(=O)O [DABIGATRAN ETEXILATE MESYLATE],Compound NOT metabolized

# Experiment: The drug is tested on Eubacterium rectale strain: ATCC33656 for biotransformation. The drug concentrations were measured before and after a 12-h incubation by liquid-chromatography-coupled mass spectrometry (LC–MS)
# Conditions: agathobacter rectalis, 2 µM
row,Compound,Bacterial Biotransformation
1,O=c1[nH]c2ccccc2n1C1CCN(CCCC(c2ccc(F)cc2)c2ccc(F)cc2)CC1 [PIMOZIDE],Compound NOT metabolized
2,Cc1ccc(-c2nc3ccc(C)cn3c2CC(=O)N(C)C)cc1 [ZOLPIDEM],Compound NOT metabolized
3,CC(C)OC(=O)C(C)(C)Oc1ccc(C(=O)c2ccc(Cl)cc2)cc1 [FENOFIBRATE],Compound NOT metabolized
4,CCCCCCOC(=O)/N=C(/N)c1ccc(NCc2nc3cc(C(=O)N(CCC(=O)OCC)c4ccccn4)ccc3n2C)cc1.CS(=O)(=O)O [DABIGATRAN ETEXILATE MESYLATE],Compound NOT metabolized

# Experiment: The drug is tested on Escherichia coli strain: BW25113 for biotransformation. The drug concentrations were measured before and after a 12-h incubation by liquid-chromatography-coupled mass spectrometry (LC–MS)
# Conditions: 2 µM
row,Compound,Bacterial Biotransformation
1,Cc1ccc(-c2nc3ccc(C)cn3c2CC(=O)N(C)C)cc1 [ZOLPIDEM],Compound NOT metabolized
2,CCCCCCOC(=O)/N=C(/N)c1ccc(NCc2nc3cc(C(=O)N(CCC(=O)OCC)c4ccccn4)ccc3n2C)cc1.CS(=O)(=O)O [DABIGATRAN ETEXILATE MESYLATE],Compound NOT metabolized

# Experiment: The drug is tested on Subdoligranulum variabile strain: DSM15176 for biotransformation. The drug concentrations were measured before and after a 12-h incubation by liquid-chromatography-coupled mass spectrometry (LC–MS)
# Conditions: 2 µM
row,Compound,Bacterial Biotransformation
1,O=c1[nH]c2ccccc2n1C1CCN(CCCC(c2ccc(F)cc2)c2ccc(F)cc2)CC1 [PIMOZIDE],Compound NOT metabolized
2,Cc1ccc(-c2nc3ccc(C)cn3c2CC(=O)N(C)C)cc1 [ZOLPIDEM],Compound NOT metabolized
3,CC(C)OC(=O)C(C)(C)Oc1ccc(C(=O)c2ccc(Cl)cc2)cc1 [FENOFIBRATE],Compound NOT metabolized
4,CCCCCCOC(=O)/N=C(/N)c1ccc(NCc2nc3cc(C(=O)N(CCC(=O)OCC)c4ccccn4)ccc3n2C)cc1.CS(=O)(=O)O [DABIGATRAN ETEXILATE MESYLATE],Compound NOT metabolized

# Experiment: The drug is tested on Bacteroides fragilis strain: ATCC43859 for biotransformation. The drug concentrations were measured before and after a 12-h incubation by liquid-chromatography-coupled mass spectrometry (LC–MS)
# Conditions: 2 µM
row,Compound,Bacterial Biotransformation
1,O=c1[nH]c2ccccc2n1C1CCN(CCCC(c2ccc(F)cc2)c2ccc(F)cc2)CC1 [PIMOZIDE],Compound NOT metabolized
2,CC(C)OC(=O)C(C)(C)Oc1ccc(C(=O)c2ccc(Cl)cc2)cc1 [FENOFIBRATE],Compound NOT metabolized

# Conditions: bacteroides fragilis, 12 h, 2 µM
# Remark: another data set of the same source
# Description: The drug is tested on Bacteroides fragilis strain: NCTC 9343 for biotransformation. The drug concentrations were measured before and after a 12-h incubation by liquid-chromatography-coupled mass spectrometry (LC–MS)
row,Compound,Bacterial Biotransformation
1,O=c1[nH]c2ccccc2n1C1CCN(CCCC(c2ccc(F)cc2)c2ccc(F)cc2)CC1 [PIMOZIDE],Compound NOT metabolized
2,Cc1ccc(-c2nc3ccc(C)cn3c2CC(=O)N(C)C)cc1 [ZOLPIDEM],Compound NOT metabolized
3,CC(C)OC(=O)C(C)(C)Oc1ccc(C(=O)c2ccc(Cl)cc2)cc1 [FENOFIBRATE],Compound metabolized
4,CCCCCCOC(=O)/N=C(/N)c1ccc(NCc2nc3cc(C(=O)N(CCC(=O)OCC)c4ccccn4)ccc3n2C)cc1.CS(=O)(=O)O [DABIGATRAN ETEXILATE MESYLATE],Compound NOT metabolized

# Experiment: The drug is tested on Blautia luti strain: DSM14534 for biotransformation. The drug concentrations were measured before and after a 12-h incubation by liquid-chromatography-coupled mass spectrometry (LC–MS)
# Type: ADME
# Parameters: dose 2 uM, timepoint 0 vs 12 hours
# Conditions: 2 µM
row,Compound,Bacterial Biotransformation
1,O=c1[nH]c2ccccc2n1C1CCN(CCCC(c2ccc(F)cc2)c2ccc(F)cc2)CC1 [PIMOZIDE],Compound NOT metabolized
2,Cc1ccc(-c2nc3ccc(C)cn3c2CC(=O)N(C)C)cc1 [ZOLPIDEM],Compound NOT metabolized
3,CC(C)OC(=O)C(C)(C)Oc1ccc(C(=O)c2ccc(Cl)cc2)cc1 [FENOFIBRATE],Compound metabolized
4,CCCCCCOC(=O)/N=C(/N)c1ccc(NCc2nc3cc(C(=O)N(CCC(=O)OCC)c4ccccn4)ccc3n2C)cc1.CS(=O)(=O)O [DABIGATRAN ETEXILATE MESYLATE],Compound NOT metabolized

# Experiment: The drug is tested on Bacteroides ovatus strain: ATCC8483 for biotransformation. The drug concentrations were measured before and after a 12-h incubation by liquid-chromatography-coupled mass spectrometry (LC–MS)
# Conditions: 2 µM
row,Compound,Bacterial Biotransformation
1,O=c1[nH]c2ccccc2n1C1CCN(CCCC(c2ccc(F)cc2)c2ccc(F)cc2)CC1 [PIMOZIDE],Compound NOT metabolized
2,CCCCCCOC(=O)/N=C(/N)c1ccc(NCc2nc3cc(C(=O)N(CCC(=O)OCC)c4ccccn4)ccc3n2C)cc1.CS(=O)(=O)O [DABIGATRAN ETEXILATE MESYLATE],Compound NOT metabolized

# Experiment: The drug is tested on Eubacterium hallii strain: DSM3353 for biotransformation. The drug concentrations were measured before and after a 12-h incubation by liquid-chromatography-coupled mass spectrometry (LC–MS)
# Conditions: anaerobutyricum hallii, 2 µM
row,Compound,Bacterial Biotransformation
1,O=c1[nH]c2ccccc2n1C1CCN(CCCC(c2ccc(F)cc2)c2ccc(F)cc2)CC1 [PIMOZIDE],Compound NOT metabolized
2,Cc1ccc(-c2nc3ccc(C)cn3c2CC(=O)N(C)C)cc1 [ZOLPIDEM],Compound NOT metabolized
3,CC(C)OC(=O)C(C)(C)Oc1ccc(C(=O)c2ccc(Cl)cc2)cc1 [FENOFIBRATE],Compound NOT metabolized
4,CCCCCCOC(=O)/N=C(/N)c1ccc(NCc2nc3cc(C(=O)N(CCC(=O)OCC)c4ccccn4)ccc3n2C)cc1.CS(=O)(=O)O [DABIGATRAN ETEXILATE MESYLATE],Compound NOT metabolized

# Experiment: The drug is tested on Bacteroides finegoldii strain: DSM17565 for biotransformation. The drug concentrations were measured before and after a 12-h incubation by liquid-chromatography-coupled mass spectrometry (LC–MS)
# Conditions: 2 µM
row,Compound,Bacterial Biotransformation
1,O=c1[nH]c2ccccc2n1C1CCN(CCCC(c2ccc(F)cc2)c2ccc(F)cc2)CC1 [PIMOZIDE],Compound NOT metabolized
2,Cc1ccc(-c2nc3ccc(C)cn3c2CC(=O)N(C)C)cc1 [ZOLPIDEM],Compound NOT metabolized
3,CC(C)OC(=O)C(C)(C)Oc1ccc(C(=O)c2ccc(Cl)cc2)cc1 [FENOFIBRATE],Compound NOT metabolized
4,CCCCCCOC(=O)/N=C(/N)c1ccc(NCc2nc3cc(C(=O)N(CCC(=O)OCC)c4ccccn4)ccc3n2C)cc1.CS(=O)(=O)O [DABIGATRAN ETEXILATE MESYLATE],Compound NOT metabolized
